Reference: ChEMBL document CHEMBL3286339, “Synthesis and in vivo SAR study of indolin-2-one-based multi-targeted inhibitors as potential anticancer agents” (Eur J Med Chem, 2014)
pIC50, pKi: −log10 of the molar value. Calls of active or inactive are those of the source. No cut-off for these calls is given here.

How the values were obtained:
Mus musculus [1] = assay: Toxicity in BALB/c nude mouse xenografted with human HT-29 cells assessed as hematuria at 80 mg/kg/day administered qd measured up to day 21; format: organism-based; settings: in vivo
Mus musculus [2] = assay: Toxicity in BALB/c nude mouse xenografted with human HT-29 cells assessed as bloody stool at 80 mg/kg/day administered qd measured up to day 21; format: organism-based; settings: in vivo
Mus musculus [3] = assay: Toxicity in BALB/c nude mouse xenografted with human HT-29 cells assessed as severe weight loss at 80 mg/kg/day administered qd; format: organism-based; settings: in vivo
Mus musculus [4] = assay: Toxicity in BALB/c nude mouse xenografted with human NCI-H460 cells assessed as bloody stool at 40 mg/kg/day administered qd; format: organism-based; settings: in vivo
Mus musculus [5] = assay: Toxicity in BALB/c nude mouse xenografted with human NCI-H460 cells assessed as severe weight loss at 40 mg/kg/day administered qd; format: organism-based; settings: in vivo
Aorta [6] = assay: Antiangiogenic activity in Sprague-Dawley rat aortic ring at 0.2 ug/ml after 6 days by inverted microscopic analysis; format: functional, tissue-based
Aorta [7] = assay: Inhibition of micrangium generation in Sprague-Dawley rat aortic ring at 0.2 ug/ml after 6 days by inverted microscopic analysis; format: functional, tissue-based
HT-29 = assay: Antitumor activity against human HT-29 cells xenografted in BALB/c nude mouse assessed as tumor growth inhibition at 80 mg/kg/day administered qd measured up to day 21 relative to control; format: functional; set-up: scale not given: the % may be the effect or the level left
[8] = Antiproliferative activity against human LO2 cells after 72 hrs by MTT assay; format: cell-based; settings: L02, 72 h
NCI-H460 [9] = assay: Antitumor activity against human NCI-H460 cells xenografted in BALB/c nude mouse assessed as tumor growth inhibition at 40 mg/kg/day administered qd measured up to day 21 relative to control; format: functional; settings: NCI-H460, 504 h, read-out: TGI
Mus musculus [10] = assay: Toxicity in BALB/c nude mouse xenografted with human NCI-H460 cells assessed as change in body weight at 40 mg/kg/day administered qd relative to control; format: organism-based; settings: in vivo
[11] = Solubility of the compound in water; format: physicochemical; settings: buffer
[12] = target: Voltage-gated inwardly rectifying potassium channel KCNH2 (Homo sapiens, UniProt Q12809); assay: Inhibition of human ERG
[13] = target: Receptor-type tyrosine-protein kinase FLT3 (Homo sapiens, UniProt P36888); assay: Binding affinity to FLT3 (unknown origin)
Receptor-type tyrosine-protein kinase FLT3, sequence (P36888 whole entry): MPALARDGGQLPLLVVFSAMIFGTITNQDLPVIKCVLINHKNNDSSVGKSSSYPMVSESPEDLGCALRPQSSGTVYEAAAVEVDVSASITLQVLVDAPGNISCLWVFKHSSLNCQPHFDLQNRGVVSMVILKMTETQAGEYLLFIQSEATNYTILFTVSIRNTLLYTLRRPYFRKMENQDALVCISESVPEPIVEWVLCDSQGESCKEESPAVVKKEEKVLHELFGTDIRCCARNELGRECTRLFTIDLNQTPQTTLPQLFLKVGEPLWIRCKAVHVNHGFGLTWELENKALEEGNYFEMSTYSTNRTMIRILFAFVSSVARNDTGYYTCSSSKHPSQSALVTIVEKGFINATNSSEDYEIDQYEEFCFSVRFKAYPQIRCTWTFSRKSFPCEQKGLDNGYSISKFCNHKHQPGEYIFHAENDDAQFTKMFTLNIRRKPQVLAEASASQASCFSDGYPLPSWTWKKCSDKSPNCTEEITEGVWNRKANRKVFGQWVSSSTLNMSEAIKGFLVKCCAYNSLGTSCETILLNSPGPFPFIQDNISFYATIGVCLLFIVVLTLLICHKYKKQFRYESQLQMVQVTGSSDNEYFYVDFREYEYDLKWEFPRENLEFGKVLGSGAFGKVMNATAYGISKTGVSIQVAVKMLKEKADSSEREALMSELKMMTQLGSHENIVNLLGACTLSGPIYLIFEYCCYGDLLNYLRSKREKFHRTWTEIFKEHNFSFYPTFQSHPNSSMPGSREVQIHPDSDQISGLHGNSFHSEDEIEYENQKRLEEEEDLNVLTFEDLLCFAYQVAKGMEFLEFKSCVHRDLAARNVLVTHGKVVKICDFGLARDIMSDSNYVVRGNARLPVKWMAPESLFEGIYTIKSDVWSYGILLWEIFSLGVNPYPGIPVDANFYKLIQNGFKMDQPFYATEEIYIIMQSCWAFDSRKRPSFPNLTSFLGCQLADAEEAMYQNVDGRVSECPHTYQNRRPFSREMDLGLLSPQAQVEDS

[14] = target: Vascular endothelial growth factor receptor 2 (Homo sapiens, UniProt P35968); assay: Binding affinity to VEGFR2 (unknown origin)
[15] = target: Platelet-derived growth factor receptor beta (Homo sapiens, UniProt P09619); assay: Binding affinity to PDGFR-beta (unknown origin)
[16] = target: Vascular endothelial growth factor receptor 1 (Homo sapiens, UniProt P17948); assay: Binding affinity to VEGFR1 (unknown origin)
Vascular endothelial growth factor receptor 1, sequence (P17948 whole entry): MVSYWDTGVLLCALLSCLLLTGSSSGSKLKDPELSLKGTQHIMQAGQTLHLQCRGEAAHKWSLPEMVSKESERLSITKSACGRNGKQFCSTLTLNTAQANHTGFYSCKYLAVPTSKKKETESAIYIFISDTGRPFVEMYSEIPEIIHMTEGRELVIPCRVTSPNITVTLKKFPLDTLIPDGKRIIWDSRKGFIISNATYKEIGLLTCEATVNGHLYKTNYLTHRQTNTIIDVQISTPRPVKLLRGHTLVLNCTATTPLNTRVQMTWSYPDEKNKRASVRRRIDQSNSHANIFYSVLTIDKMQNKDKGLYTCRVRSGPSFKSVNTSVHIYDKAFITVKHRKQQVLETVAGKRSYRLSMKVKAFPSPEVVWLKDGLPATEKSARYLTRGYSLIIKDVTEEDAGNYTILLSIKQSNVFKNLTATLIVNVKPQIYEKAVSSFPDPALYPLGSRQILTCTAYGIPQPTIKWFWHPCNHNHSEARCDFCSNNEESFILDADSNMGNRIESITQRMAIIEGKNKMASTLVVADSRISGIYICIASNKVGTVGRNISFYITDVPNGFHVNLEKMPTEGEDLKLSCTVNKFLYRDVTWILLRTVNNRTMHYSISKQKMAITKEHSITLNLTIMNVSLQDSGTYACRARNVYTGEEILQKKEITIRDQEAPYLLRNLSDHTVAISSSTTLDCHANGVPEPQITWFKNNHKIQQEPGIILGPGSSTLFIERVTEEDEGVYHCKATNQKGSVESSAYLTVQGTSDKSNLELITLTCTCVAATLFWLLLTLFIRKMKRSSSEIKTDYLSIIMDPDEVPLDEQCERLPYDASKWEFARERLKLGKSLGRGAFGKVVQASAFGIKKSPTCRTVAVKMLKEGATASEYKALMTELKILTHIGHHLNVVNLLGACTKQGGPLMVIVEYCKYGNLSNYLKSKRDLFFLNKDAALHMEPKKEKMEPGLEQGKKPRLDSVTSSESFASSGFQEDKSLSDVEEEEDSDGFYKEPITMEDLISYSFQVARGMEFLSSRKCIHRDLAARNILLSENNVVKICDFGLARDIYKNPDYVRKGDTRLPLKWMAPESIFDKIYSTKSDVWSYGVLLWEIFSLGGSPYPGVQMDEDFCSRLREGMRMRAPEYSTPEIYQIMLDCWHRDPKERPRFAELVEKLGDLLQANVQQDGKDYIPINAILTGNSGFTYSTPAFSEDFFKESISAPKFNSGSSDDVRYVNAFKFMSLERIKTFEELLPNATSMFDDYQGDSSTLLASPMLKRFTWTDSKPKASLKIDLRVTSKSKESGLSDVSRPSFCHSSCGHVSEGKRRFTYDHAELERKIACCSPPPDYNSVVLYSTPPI

[17] = target: T1, Proto-oncogene tyrosine-protein kinase receptor Ret (Homo sapiens, UniProt P07949); assay: Binding affinity to RET (unknown origin)
T1 sequence (P07949 whole entry): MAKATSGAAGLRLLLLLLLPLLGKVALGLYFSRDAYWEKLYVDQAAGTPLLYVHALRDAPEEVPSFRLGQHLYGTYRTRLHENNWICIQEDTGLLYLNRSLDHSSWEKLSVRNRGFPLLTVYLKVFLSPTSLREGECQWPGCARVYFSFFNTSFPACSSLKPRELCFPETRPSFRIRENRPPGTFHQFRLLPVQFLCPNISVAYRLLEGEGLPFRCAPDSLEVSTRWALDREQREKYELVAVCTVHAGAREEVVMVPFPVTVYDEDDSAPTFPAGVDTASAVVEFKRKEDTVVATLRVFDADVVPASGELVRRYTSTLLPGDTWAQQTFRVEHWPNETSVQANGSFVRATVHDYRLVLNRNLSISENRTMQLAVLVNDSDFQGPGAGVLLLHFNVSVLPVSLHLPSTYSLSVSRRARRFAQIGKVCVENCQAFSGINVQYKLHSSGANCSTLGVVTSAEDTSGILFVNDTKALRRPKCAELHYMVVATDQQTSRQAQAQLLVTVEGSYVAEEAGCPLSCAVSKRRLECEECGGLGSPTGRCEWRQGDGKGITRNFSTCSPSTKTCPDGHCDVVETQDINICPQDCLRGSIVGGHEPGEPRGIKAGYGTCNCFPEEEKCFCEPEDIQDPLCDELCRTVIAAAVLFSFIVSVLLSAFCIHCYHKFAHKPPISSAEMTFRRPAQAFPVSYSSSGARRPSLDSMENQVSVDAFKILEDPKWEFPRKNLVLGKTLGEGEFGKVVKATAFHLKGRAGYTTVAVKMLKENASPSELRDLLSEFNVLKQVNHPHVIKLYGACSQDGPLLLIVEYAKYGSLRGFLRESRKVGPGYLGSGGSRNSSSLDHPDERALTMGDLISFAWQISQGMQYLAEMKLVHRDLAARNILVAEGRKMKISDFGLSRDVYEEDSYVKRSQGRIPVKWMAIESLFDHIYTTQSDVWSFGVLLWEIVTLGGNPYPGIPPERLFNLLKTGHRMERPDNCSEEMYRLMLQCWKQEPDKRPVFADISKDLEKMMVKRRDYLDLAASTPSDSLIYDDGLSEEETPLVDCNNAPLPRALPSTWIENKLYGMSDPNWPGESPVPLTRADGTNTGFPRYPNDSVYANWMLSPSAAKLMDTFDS

[18] = target: Tyrosine-protein kinase receptor UFO (Homo sapiens, UniProt P30530); assay: Binding affinity to AXL (unknown origin)
[19] = target: ALK tyrosine kinase receptor (Homo sapiens, UniProt Q9UM73); assay: Binding affinity to ALK (unknown origin)
[20] = target: Serine/threonine-protein kinase Chk1 (Homo sapiens, UniProt O14757); assay: Binding affinity to CHK1 (unknown origin)
[21] = target: Tyrosine-protein kinase ABL2 (Homo sapiens, UniProt P42684); assay: Binding affinity to ARG (unknown origin)
[22] = target: T2, Macrophage colony-stimulating factor 1 receptor (Homo sapiens, UniProt P07333); assay: Binding affinity to FMS (unknown origin)
T2 sequence (P07333 whole entry): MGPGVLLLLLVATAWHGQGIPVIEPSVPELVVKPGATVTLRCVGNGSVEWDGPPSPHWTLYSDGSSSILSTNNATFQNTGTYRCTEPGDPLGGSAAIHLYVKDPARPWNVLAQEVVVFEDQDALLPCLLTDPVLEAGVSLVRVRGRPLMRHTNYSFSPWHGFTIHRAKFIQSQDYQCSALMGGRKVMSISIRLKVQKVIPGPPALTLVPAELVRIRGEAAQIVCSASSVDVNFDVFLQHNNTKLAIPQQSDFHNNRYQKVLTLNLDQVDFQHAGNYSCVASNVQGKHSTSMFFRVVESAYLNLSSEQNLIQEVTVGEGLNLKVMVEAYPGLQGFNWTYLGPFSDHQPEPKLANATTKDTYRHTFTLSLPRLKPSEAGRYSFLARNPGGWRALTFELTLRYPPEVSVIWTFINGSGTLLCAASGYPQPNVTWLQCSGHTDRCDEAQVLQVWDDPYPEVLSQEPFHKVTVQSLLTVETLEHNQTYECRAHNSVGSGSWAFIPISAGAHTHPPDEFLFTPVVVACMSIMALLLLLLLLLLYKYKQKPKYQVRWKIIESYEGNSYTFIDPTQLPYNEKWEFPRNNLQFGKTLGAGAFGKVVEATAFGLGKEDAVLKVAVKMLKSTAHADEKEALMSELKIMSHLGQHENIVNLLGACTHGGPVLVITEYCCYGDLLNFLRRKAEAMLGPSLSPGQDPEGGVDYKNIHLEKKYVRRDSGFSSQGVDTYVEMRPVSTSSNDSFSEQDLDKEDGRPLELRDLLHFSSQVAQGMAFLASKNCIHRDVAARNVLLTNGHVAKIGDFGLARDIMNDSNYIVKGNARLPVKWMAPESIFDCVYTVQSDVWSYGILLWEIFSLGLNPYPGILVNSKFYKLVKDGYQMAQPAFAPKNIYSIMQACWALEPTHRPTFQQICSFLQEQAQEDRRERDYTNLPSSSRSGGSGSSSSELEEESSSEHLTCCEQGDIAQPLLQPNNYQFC

[23] = target: T3, Protein-tyrosine kinase 2-beta (Homo sapiens, UniProt Q14289); assay: Binding affinity to PYK2 (unknown origin)
[24] = target: T4, Fibroblast growth factor receptor 1 (Homo sapiens, UniProt P11362); assay: Binding affinity to FGFR1 (unknown origin)
Focal adhesion kinase 1 [25] = target: T5, Focal adhesion kinase 1 (Homo sapiens, UniProt Q05397); assay: Binding affinity to FAK (unknown origin)
[26] = target: T6, Tyrosine-protein kinase Lck (Homo sapiens, UniProt P06239); assay: Binding affinity to LCK (unknown origin)
[27] = target: Receptor-type tyrosine-protein kinase FLT3 (Homo sapiens) (UniProt P36888); assay: Inhibition of FLT3 (unknown origin) at 1 uM relative to control
Receptor-type tyrosine-protein kinase FLT3 (Homo sapiens), sequence (P36888 whole entry): as the sequence (P36888 whole entry) above

[28] = target: Serine/threonine-protein kinase Chk1 (Homo sapiens) (UniProt O14757); assay: Inhibition of CHK1 (unknown origin) at 1 uM relative to control
[29] = target: Tyrosine-protein kinase ABL1 (Homo sapiens, UniProt P00519); assay: Inhibition of ABL (unknown origin) at 1 uM relative to control
[30] = target: T2, Macrophage colony-stimulating factor 1 receptor; assay: Inhibition of FMS (unknown origin) at 1 uM relative to control
[31] = target: T3, Protein-tyrosine kinase 2-beta; assay: Inhibition of PYK2 (unknown origin) at 1 uM relative to control
[32] = target: T4, Fibroblast growth factor receptor 1; assay: Inhibition of FGFR1 (unknown origin) at 1 uM relative to control
Focal adhesion kinase 1 [33] = target: T5, Focal adhesion kinase 1; assay: Inhibition of FAK (unknown origin) at 1 uM relative to control
[34] = target: Phosphorylase b kinase gamma catalytic chain, liver/testis isoform (Homo sapiens) (UniProt P15735); assay: Inhibition of PHKgamma2 (unknown origin) at 1 uM relative to control
Phosphorylase b kinase gamma catalytic chain, liver/testis isoform (Homo sapiens), sequence (P15735 whole entry, canonical isoform): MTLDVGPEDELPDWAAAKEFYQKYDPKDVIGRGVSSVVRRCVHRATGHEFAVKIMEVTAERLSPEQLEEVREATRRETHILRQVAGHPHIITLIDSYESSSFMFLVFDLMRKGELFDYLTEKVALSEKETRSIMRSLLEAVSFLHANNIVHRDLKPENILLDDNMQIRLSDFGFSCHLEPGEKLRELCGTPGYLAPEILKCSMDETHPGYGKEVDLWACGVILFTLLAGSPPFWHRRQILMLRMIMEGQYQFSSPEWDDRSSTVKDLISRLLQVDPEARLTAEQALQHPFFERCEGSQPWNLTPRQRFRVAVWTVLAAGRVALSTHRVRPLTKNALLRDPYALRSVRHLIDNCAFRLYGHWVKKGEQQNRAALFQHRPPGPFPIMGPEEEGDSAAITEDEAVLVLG

[35] = Antiproliferative activity against human MV411 cells after 48 hrs by MTT assay; format: functional, cell-based; settings: MV4-11, 48 h
TT = assay: Antiproliferative activity against human TT cells pretreated for 72 hrs followed by compound-washout measured after 72 hrs by MTT assay; format: functional, cell-based
NCI-H460 [36] = assay: Antiproliferative activity against human NCI-H460 cells after 72 hrs by MTT assay; format: functional, cell-based; settings: NCI-H460, 72 h
NCI-H526 = assay: Antiproliferative activity against human NCI-H526 cells after 72 hrs by MTT assay; format: functional, cell-based; settings: NCI-H526, 72 h
[37] = Antiproliferative activity against human NCI-H3122 cells after 72 hrs by MTT assay; format: functional, cell-based; settings: NCI-H3122, 72 h
[38] = Antiproliferative activity against human Bel7402 cells after 72 hrs by MTT assay; format: functional, cell-based; settings: Bel-7402, 72 h
[39] = Antiproliferative activity against human HK2 cells after 72 hrs by MTT assay; format: cell-based; settings: HK-2, 72 h
[40] = target: T1, Proto-oncogene tyrosine-protein kinase receptor Ret; settings: 1 uM
Description: Inhibition of RET (unknown origin) at 1 uM relative to control

[41] = target: Tyrosine-protein kinase receptor UFO (Homo sapiens) (UniProt P30530); settings: 1 uM
Description: Inhibition of AXL (unknown origin) at 1 uM relative to control

[42] = target: Mast/stem cell growth factor receptor Kit (Homo sapiens, UniProt P10721); settings: 1 uM
Description: Inhibition of c-KIT (unknown origin) at 1 uM relative to control

[43] = target: Tyrosine-protein kinase Fyn (Homo sapiens, UniProt P06241); settings: 1 uM
Description: Inhibition of FYN (unknown origin) at 1 uM relative to control

[44] = target: T6, Tyrosine-protein kinase Lck; settings: 1 uM
Description: Inhibition of LCK (unknown origin) at 1 uM relative to control

- solubility [11]: soluble
- pKi [13]: > 9.52
- pKi [14]: 8.42
- pKi [15]: 7.72
- pKi [16]: 5.96
- pKi [17]: 7.74
- pKi [18]: 7.20
- pKi [19]: 7.02
- pKi [20]: 6.96
- pKi [21]: 6.74
- pKi [22]: 6.64
- pKi [23]: 6.47
- pKi [24]: 6.46
- pKi (Focal adhesion kinase 1 [25]): 6.28
- pKi [26]: 5.70
- inhibition [27]: 100%
- inhibition [28]: 76%
- inhibition [29]: 93%
- inhibition [30]: 84%
- inhibition [31]: 72%
- inhibition [32]: 71%
- inhibition (Focal adhesion kinase 1 [33]): 66%
- inhibition [34]: 51%
- pIC50 (NCI-H460 [36]): 5.21
- pIC50 (NCI-H526): 4.69
- inhibition [40]: 99%
- inhibition [41]: 95%
- inhibition [42]: 87%
- inhibition [43]: 44%
- inhibition [44]: 44%
SMILES: Cc1[nH]c(/C=C2\C(=O)Nc3ccc(F)cc32)c(C)c1NC(=O)CCN1CCN(C)CC1
- Activity (Mus musculus [1]): Non-toxic
- Activity (Mus musculus [2]): Non-toxic
- Activity (Mus musculus [3]): Non-toxic
- Activity (Mus musculus [4]): Non-toxic
- Activity (Mus musculus [5]): Non-toxic
- inhibition (Aorta [6]): Active
- inhibition (Aorta [7]): Active
- Activity (HT-29): 84.7%
- pIC50 [8]: 4.38
- inhibition in vivo at 40 mg/kg/day (NCI-H460 [9]): 60.6%
- Activity (Mus musculus [10]): 1.4%
- pIC50 [12]: 4.73
- pIC50 [35]: 8.10
- pIC50 (TT): 7.15
- pIC50 [37]: 4.77
- pIC50 [38]: 4.83
- pIC50 [39]: 5.16
